{"source": "patent US9175305B2", "about": "“Mutant hydroxyphenylpyruvate dioxygenase polypeptides and methods of use” (Syngenta Participations AG, priority 2009, dated 2015)", "key": {"[1]": {"target": "HPPD SEQ ID NO:14 (Avena sativa, UniProt A0ACD5V6K6, DEL109-109)", "sequence (A0ACD5V6K6 entry or part of it DEL109-109)": "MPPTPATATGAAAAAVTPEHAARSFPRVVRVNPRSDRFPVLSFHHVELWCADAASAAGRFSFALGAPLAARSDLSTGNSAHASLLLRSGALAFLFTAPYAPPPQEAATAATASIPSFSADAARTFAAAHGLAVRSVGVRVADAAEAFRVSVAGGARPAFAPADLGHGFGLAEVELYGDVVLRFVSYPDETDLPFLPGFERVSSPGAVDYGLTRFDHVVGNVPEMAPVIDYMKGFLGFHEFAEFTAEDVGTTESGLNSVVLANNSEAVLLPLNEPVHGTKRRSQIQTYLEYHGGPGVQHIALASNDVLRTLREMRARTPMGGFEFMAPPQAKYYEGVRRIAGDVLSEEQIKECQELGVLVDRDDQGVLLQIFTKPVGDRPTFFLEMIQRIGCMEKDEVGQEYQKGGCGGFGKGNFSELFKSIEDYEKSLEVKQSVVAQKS", "experiment": "biochemical", "assay_type": "binding", "protocol": "(§1) On rates (governed by an association rate constant, kon) for the formation of the enzyme: inhibitor complexes, EI and off rates (governed by a dissociation rate constant, koff) were determined by methods known in the art and essentially as described in Hawkes et al. (2001) Proc. Bright. Crop. Prot. Conf. Weeds, 2:563-568 and in PCT Patent App. Pub. No. WO 02/46387).\n(§2) For example, on rates were measured by, at zero time, adding ˜60 pmoles HPPD to 50 mM BisTrisPropane buffer at pH7.0 and at 25° C. containing 25 mM Na ascorbate, 4 μg/ml bovine catalase (Sigma, St. Louis, Mo.) and an excess (˜300 pmoles) of ^14C inhibitor in a total assay volume of 425 μl and, at various time points (0-180 s), quenching the radiolabel binding reaction by addition and rapid mixing of 100 μl ‘cold’ 1 mM structure A. Protein samples quenched at different times were then exchanged into 50 mM BisTrisPropane buffer at pH 7.0 containing 0.1M KCl by rapid chromatography down a NAP5 G25 Sephadex column (GE Healthcare Ltd, Buckinghamshire UK) and the amount of ^14C bound to protein fractions quantified in Optiphase scintillant using a Tri-Carb 2900TR scintillation counter (Perkin Elmer, Wellesley, Mass.). The data were fit according to the scheme below in order to derive the value of the apparent second order rate constant, k2, governing the association rate of enzyme and radiolabelled inhibitor. A range of enzyme and inhibitor concentrations were used. […] Further example methods are described in PCT Patent App. Pub. No. WO 02/46387.\n(§3) Off rates (k1 in the scheme below) were derived from exchange rate studies where either the test inhibitor, I, or its exchange partner, J were radiolabelled and the data fit according to the scheme below. As noted in Hawkes et al. (2001) Proc. Bright. Crop. Prot. Conf.\n(§4) After 30 minutes the exchange reaction was initiated with addition of 100 μl 1 mM ‘cold’ structure A with thorough mixing, and, immediately, 150 μl were withdrawn and loaded onto a NAP5 column, the protein exchanged into 50 mM BisTrisPropane buffer at pH 7.0 containing 0.1M KCl by rapid (<2 min) chromatography down a NAP5 G25 Sephadex column (GE Healthcare Ltd, Buckinghamshire UK) and the amount of ^14C bound to protein measured by Optiphase scintillant using a Tri-Carb 2900TR scintillation counter (Perkin Elmer, Wellesley, Mass.). Further aliquots were removed and measured in the same way at various times over minutes or hours as required in order to determine the exchange kinetics.\n(§5) After 30 minutes the reaction vessel was transferred to ice. After a further 10 minutes at ice temperature the exchange reaction was initiated by addition of 100 μl 1 mM Structure A, with thorough mixing, and 150 μl was withdrawn and loaded onto a NAP5 column in a cold room at ˜5-8° C. in order to quantify the amount of radiolabel remaining bound to the protein at various time from the start of exchange at ice temperature.\n(§6) Off rates (k1) of HPPD inhibitors that are not available radiolabelled or that present other measurement problems (for example high levels of background non-specific protein-binding which can be measured as radiolabel binding that persists in the presence of high concentrations of ‘cold’ inhibitor) may be measured indirectly. […] Exemplary methods are also described in PCT Patent App. Pub. No. WO 02/46387."}, "[2]": {"target": "HPPD SEQ ID NO:15 (Avena sativa, UniProt A0ACD5V6K6, DEL109-109/Q298A)", "sequence (A0ACD5V6K6 entry or part of it DEL109-109/Q298A)": "as the sequence (A0ACD5V6K6 entry or part of it DEL109-109) above, with Q297A counted along it", "experiment": "biochemical", "assay_type": "binding", "protocol": "as §1, §2, §3, §4, §5, §6"}, "[3]": {"target": "HPPD SEQ ID NO:16 (Avena sativa, UniProt A0ACD5V6K6, DEL109-109/Q298G)", "sequence (A0ACD5V6K6 entry or part of it DEL109-109/Q298G)": "as the sequence (A0ACD5V6K6 entry or part of it DEL109-109) above, with Q297G counted along it", "experiment": "biochemical", "assay_type": "binding", "protocol": "as §1, §2, §3, §4, §5, §6"}, "[4]": {"target": "HPPD SEQ ID NO:17 (Avena sativa, UniProt A0ACD5V6K6, DEL109-109/Q298S)", "sequence (A0ACD5V6K6 entry or part of it DEL109-109/Q298S)": "as the sequence (A0ACD5V6K6 entry or part of it DEL109-109) above, with Q297S counted along it", "experiment": "biochemical", "assay_type": "binding", "protocol": "as §1, §2, §3, §4, §5, §6"}, "[5]": {"target": "HPPD SEQ ID NO:18 (Avena sativa, UniProt A0ACD5V6K6, DEL109-109/I285T)", "sequence (A0ACD5V6K6 entry or part of it DEL109-109/I285T)": "as the sequence (A0ACD5V6K6 entry or part of it DEL109-109) above, with I284T counted along it", "experiment": "biochemical", "assay_type": "binding", "protocol": "as §1, §2, §3, §4, §5, §6"}, "[6]": {"target": "HPPD SEQ ID NO:19 (Avena sativa, UniProt A0ACD5V6K6, DEL109-109/I285A)", "sequence (A0ACD5V6K6 entry or part of it DEL109-109/I285A)": "as the sequence (A0ACD5V6K6 entry or part of it DEL109-109) above, with I284A counted along it", "experiment": "biochemical", "assay_type": "binding", "protocol": "as §1, §2, §3, §4, §5, §6"}, "[7]": {"target": "HPPD SEQ ID NO:20 (Avena sativa, UniProt A0ACD5V6K6, DEL109-109/I285S)", "sequence (A0ACD5V6K6 entry or part of it DEL109-109/I285S)": "as the sequence (A0ACD5V6K6 entry or part of it DEL109-109) above, with I284S counted along it", "experiment": "biochemical", "assay_type": "binding", "protocol": "as §1, §2, §3, §4, §5, §6"}, "[8]": {"target": "HPPD SEQ ID NO:21 (Avena sativa, UniProt A0ACD5V6K6, DEL109-109/I285V)", "sequence (A0ACD5V6K6 entry or part of it DEL109-109/I285V)": "as the sequence (A0ACD5V6K6 entry or part of it DEL109-109) above, with I284V counted along it", "experiment": "biochemical", "assay_type": "binding", "protocol": "as §1, §2, §3, §4, §5, §6"}, "[9]": {"target": "HPPD SEQ ID NO:22 (Avena sativa, UniProt A0ACD5V6K6, DEL109-109/L256M)", "sequence (A0ACD5V6K6 entry or part of it DEL109-109/L256M)": "as the sequence (A0ACD5V6K6 entry or part of it DEL109-109) above, with L255M counted along it", "experiment": "biochemical", "assay_type": "binding", "protocol": "as §1, §2, §3, §4, §5, §6"}, "[10]": {"target": "HPPD SEQ ID NO:24 (Avena sativa, UniProt A0ACD5V6K6, DEL109-109/L359M)", "sequence (A0ACD5V6K6 entry or part of it DEL109-109/L359M)": "as the sequence (A0ACD5V6K6 entry or part of it DEL109-109) above, with L358M counted along it", "experiment": "biochemical", "assay_type": "binding", "protocol": "as §1, §2, §3, §4, §5, §6"}, "[11]": {"test_system": "Jack w/t", "experiment": "herbicide spray test on soybean", "assay_type": "in vivo", "details": "C 400 g/ha, V2 growth stage, 14 DAT, average of n=7", "protocol": "Each data point represents the average damage score from n=7 replicates.\nPlants were in 4×4×4 inch plastic pots and grown under a 15/9 hour light regime (daylight supplemented by artificial light in greenhouses) at a minimum night-time temperature of 18° C. and maximum daytime temperature of 27° C. Soil was regular VBRC mix (1:1 mixture of Vero field soil and Fafard Mix II) where Vero field soil is 98% sand and 2% clay. […] Spray volume was 150 L/ha and the damage scores reflect assessments at 14 DAT."}}, "note": "“And” between values parts separate entries of the source, which are not always exact repeats. Identical values can stand only once. Like-named read-outs stand apart in the source and are kept apart here."}
{"smiles": "COCCOCc1nc(C(F)(F)F)ccc1C(=O)C1C(=O)C2CCC(C2)C1=O", "note": "(centres unmarked) [Structure C]", "values": [{"measurement": "On rate, activity-based method", "setting": "[1]; 25° C., enzyme activity-based method", "value": "7800 M⁻¹ s⁻¹ and 7600 M⁻¹ s⁻¹ and 7200 M⁻¹ s⁻¹ and 10000 M⁻¹ s⁻¹"}, {"measurement": "kon", "setting": "[1]; 25° C., enzyme activity-based method, read-out: On rate, activity-based method", "value": 7500, "unit": "M⁻¹ s⁻¹"}, {"measurement": "Kd/Km ratio", "setting": "[1]; HPPD SEQ ID NO:14", "value": 0.0017}, {"measurement": "Kd", "setting": "[1]; Kd, estimated from on and off rates, 25° C.", "value": 9.4, "unit": "nM"}, {"measurement": "koff", "setting": "[1]; read-out: koff (k1)", "value": "7.04e-05", "unit": "s⁻¹"}, {"measurement": "kon", "setting": "[1]; read-out: kon (k2)", "value": 7500, "unit": "M⁻¹ s⁻¹"}, {"measurement": "Kd", "setting": "[2]", "value": 17.7, "unit": "nM"}, {"measurement": "koff", "setting": "[2]; read-out: koff (k1)", "value": 0.000113, "unit": "s⁻¹"}, {"measurement": "kon", "setting": "[2]; read-out: kon (k2)", "value": 7500, "unit": "M⁻¹ s⁻¹"}, {"measurement": "Kd", "setting": "[3]", "value": 26.7, "unit": "nM"}, {"measurement": "koff", "setting": "[3]; read-out: koff (k1)", "value": 0.00012, "unit": "s⁻¹"}, {"measurement": "kon", "setting": "[3]; read-out: kon (k2)", "value": 4500, "unit": "M⁻¹ s⁻¹"}, {"measurement": "Kd", "setting": "[4]", "value": 7.1, "unit": "nM"}, {"measurement": "koff", "setting": "[4]; read-out: koff (k1)", "value": "6.65e-05", "unit": "s⁻¹"}, {"measurement": "kon", "setting": "[4]; read-out: kon (k2)", "value": 9400, "unit": "M⁻¹ s⁻¹"}, {"measurement": "Kd", "setting": "[5]", "value": 11.9, "unit": "nM"}, {"measurement": "koff", "setting": "[5]; read-out: koff (k1)", "value": "9e-05", "unit": "s⁻¹"}, {"measurement": "kon", "setting": "[5]; read-out: kon (k2)", "value": 7500, "unit": "M⁻¹ s⁻¹"}, {"measurement": "Kd", "setting": "[6]", "value": 8.9, "unit": "nM"}, {"measurement": "koff", "setting": "[6]; read-out: koff (k1)", "value": "6.6e-05", "unit": "s⁻¹"}, {"measurement": "kon", "setting": "[6]; read-out: kon (k2)", "value": 7500, "unit": "M⁻¹ s⁻¹"}, {"measurement": "Kd", "setting": "[7]", "value": 6.6, "unit": "nM"}, {"measurement": "koff", "setting": "[7]; read-out: koff (k1)", "value": "6.6e-05", "unit": "s⁻¹"}, {"measurement": "kon", "setting": "[7]; read-out: kon (k2)", "value": 10100, "unit": "M⁻¹ s⁻¹"}, {"measurement": "Kd", "setting": "[8]", "value": 11.9, "unit": "nM"}, {"measurement": "koff", "setting": "[8]; read-out: koff (k1)", "value": "9e-05", "unit": "s⁻¹"}, {"measurement": "kon", "setting": "[8]; read-out: kon (k2)", "value": 7500, "unit": "M⁻¹ s⁻¹"}, {"measurement": "Kd", "setting": "[9]", "value": 23.9, "unit": "nM"}, {"measurement": "koff", "setting": "[9]; read-out: koff (k1)", "value": "9e-05", "unit": "s⁻¹"}, {"measurement": "kon", "setting": "[9]; read-out: kon (k2)", "value": 4400, "unit": "M⁻¹ s⁻¹"}, {"measurement": "Kd", "setting": "[10]", "value": 16, "unit": "nM"}, {"measurement": "SEQ ID NO:24 superior to SEQ ID NO:14 (in vitro, in particular off rate data)", "setting": "[10]", "value": "neutral"}, {"measurement": "koff", "setting": "[10]; read-out: koff (k1)", "value": "7.82e-05", "unit": "s⁻¹"}, {"measurement": "kon", "setting": "[10]; read-out: kon (k2)", "value": 4900, "unit": "M⁻¹ s⁻¹"}, {"measurement": "% dam.", "setting": "[11]", "value": 82.1, "unit": "%"}]}
